Experiment [1] can be described thus: Hypochlorite scavenging with APF/HPF fluorescent probes (sodium hypochlorite). Conditions: commercially available SDG; FIG. 15B. The protocol:
The fluorescence of ROS probes APF and HPF in PBS was measured at excitation/emission at 490 nm/515 nm in presence of hypochlorite or after γ-radiation exposure. Data is expressed as relative fluorescence units (RFU).

The test system of experiment [2] is murine primary lung cells (epithelial, endothelial and WT fibroblasts). Kind of experiment: Alkaline comet assay (DNA SSBs) in irradiated primary lung cells. The experiment is classed as cell-based, mouse. Conditions: 2 Gy. The protocol: Fibroblasts and endothelial cells were isolated from C57/bl6 mouse. For fibroblast isolation, mouse lungs were harvested, minced, and incubated with dispase (2 mg/ml) for 45 minutes. Pieces were plated out and fibroblasts were cultured as described previously and used between passages 3 and 10. Pulmonary microvascular endothelial cells (PMVEC) were isolated from murine lungs as described previously. Briefly, freshly harvested mouse lungs were treated with collagenase followed by isolation of cells by adherence to magnetic beads coated with mAb to platelet endothelial cell adhesion molecule (PECAM). Epithelial cells (C10) cells were originally derived from a normal BALB/c mouse lung explant and are non-tumorigenic, contact-inhibited, and have alveolar type 2 cell features at early passage.
Exponentially growing cells were cultured and treated with SDG (50 μM) at different time intervals prior to irradiation (2 Gy). Cells were processed for comet assay as per manufacturer's instructions (Trevigen, Gaithersburg, Md.). […] At least 150 cells were scored per group. Visual analysis of cells and comet tail length was measured using Comet Image Analysis software (Comet Assay IV, Perceptive Instruments Ltd, Haverhill, UK) Images were captured on an Olympus IX51 fluorescence microscope using a monochrome CCD FireWire camera.

In experiment [3] the test system is plasmid DNA. As to the kind of experiment: Hypochlorite-induced damage to plasmid DNA. It is filed as biochemical. To be noted: SDG 25 μM; 4.5 mM HOCl. The method, then: Calf thymus or plasmid DNA was incubated with hypochlorite for 2 hrs at 37° C. DNA samples were subjected to agarose (1%) gel electrophoresis and analyzed.
The subject of experiment [4] is calf thymus DNA. Kind of experiment: Radiation-induced calf thymus DNA fragmentation assay. It is filed as biochemical. Conditions: 50 Gy. The method, then: Plasmid DNA (pBR322) or calf thymus DNA samples with or without varying concentrations of SDG (R,R), SDG (S,S) and SDG (commercial) were exposed to γ-radiation with a Mark 1 cesium (Cs-137) irradiator (J. L. Shepherd, San Fernando, Calif.) at a dose rate of 1.7 Gy/min in phosphate buffered saline, pH 7.4 (PBS).
The effect of test compounds on radiation-induced strand breaks in DNA was determined using calf thymus DNA (Sigma, St. Louis, Mo.). DNA (500 ng) in PBS (pH 7.4) was mixed with varying concentrations (25-250 μM) of SDG (R,R), SDG (S,S) and SDG (commercial) and irradiated at 50 Gy for 30 min. A second series of experiments were performed at varying concentrations ranging from 0.5-10 μM. Samples were mixed with loading dye and subjected to agarose (1%) gel electrophoresis in TAE buffer (pH, 8.3) at 100 V. The gel was stained with ethidium bromide (0.5 μg/ml) for 40 min, washed for 20 min and then visualized on a UV trans-illuminator (Bio-Rad, Hercules, Calif.). The captured gel images were scanned and the density of the calf thymus DNA fragments was determined by Gel-Pro image analyzer program (Media Cybernetics, Silver Spring, Md.). The density of the low mol. wt (<6,000 bps) and the high mol. wt (>6,000 bps) fragments of calf thymus DNA was expressed as % of the total density (low mol wt.+high mol. wt.).

Turning to `COc1cc(C[C@@H](CO[C@@H]2O[C@H](CO)[C@@H](O)[C@H](O)[C@H]2O)[C@H](CO[C@@H]2O[C@H](CO)[C@@H](O)[C@H](O)[C@H]2O)Cc2ccc(O)c(OC)c2)ccc1O` [SDG, secoisolariciresinol diglucoside], the “ClO^− scavenging” value in experiment [1] was “decreased ClO^− dose-dependently”. Further, in experiment [2] (SDG 50 μM pre-treatment at all time intervals, all three cell types), the “Radiation-induced comet tail length” value was “significantly inhibited”. Moreover, in experiment [2] (SDG 50 μM, all cell types), the “Pre-treatment time giving maximum protection against radiation-induced tail moment” value is listed as 6 h. Moreover, in experiment [3], the “Open coiled (OC) form of plasmid DNA” value was 18.6%±9.4 and the “Super coiled (SC) form of plasmid DNA” value was 81.3%±9.4. In addition, the “Concentration at which maximum radioprotection of genomic DNA is achieved” value in experiment [4] is “approximately 5.0 μM”. Further, the “Radioprotective properties of SDG and metabolites compared” value in experiment [4] (10 μM of each agent) is reported as “equipotent”.
